Values after ≈ are worked out from the molar mass of the structure shown.
Experiments:
[1] = Solubility of ACF in different media; type: physicochemical; settings: thermodynamic from solid
Description: The mixture was shaken using a vortex mixer (Heidolph Instrument, D-91126 Schwabach, type RZR 2021, Bavaria, Germany) for 15 min, followed by storage at room temperature. After 24 h, the resulting solution was subjected to centrifugation at 3000 rpm for 5 min to separate the clear supernatant. A suitable sample solution was collected and diluted with absolute methanol. The diluted sample was filtered using Whatman 102 filter paper and further diluted with absolute methanol for the determination of the drug concentration in the saturated solution. Analysis of the samples was performed using a UV spectrophotometer (DU 640; Beckman, CA, USA) at a wavelength of 276 nm, with methanol as the blank reference.

[2] = test system: A375 human melanoma cell lines; experiment: Cytotoxicity SRB assay; type: cell-based; settings: A-375, 48 h of incubation (method says 72 h)
Description: Cell viability was assessed by SRB assay as reported [47]. […] Melanoma cells were mixed with TCA (10%) and maintained at 4 °C for 1 h, then washed with D.W. Sulforhodamine B (70 μL) (0.4% w/v) was added and kept for 10 min. Plates were washed by 1% acetic acid 3 times and left to dry overnight. TRIS (150 μL) was added to dissolve the protein-bound SRB stain. Lastly, absorbance was determined by a star Omega microplate reader (BMGLABTECH®-FLUO, Ortenberg, Germany) at 540 nm [48, 49]. Cytotoxicity was expressed as (IC50), which was determined by plotting %viability against the concentration of the drug (five concentrations were used). IC50 values were calculated from the dose–response curve by the PRISM program.

`O=C(O)COC(=O)Cc1ccccc1Nc1c(Cl)cccc1Cl` [ACF, Aceclofenac] gave a solubility at 24 h ([1]; oil or lipid, citronellol oil, room temperature) of 5.26 mg/mL (≈ 14.9 mM), a solubility at 24 h ([1]; organic solvent or mixture, Transcutol HP, room temperature) of 300 mg/mL (≈ 848 mM) and a solubility at 24 h ([1]; Tween 80, room temperature) of 62.6 mg/mL (≈ 177 mM). The solubility at 24 h ([1]; water, room temperature) was 0.071 mg/mL (≈ 0.2 mM) and the IC50 [2] was 69.3 µg/mL (≈ 0.196 mM).

— paper PMC10525854 (Biomedicines, 2023)
